Like-named read-outs stand apart in the source and are kept apart here.
Columns and labels:
[1] = molecular target: T1, human CD4 (CD4-YFP) expression in CHO•CD4-YFP cells (Homo sapiens, UniProt P01730); test: CD4 down-modulation in CHO cells stably expressing CD4-YFP; format: cell-based; conditions: for DC50: read-out: IC50 CD4 (μM) mean ± SD, 50% down-modulation of CD4 expression, 24 h drug treatment
[2] = molecular target: T1, human CD4 (CD4-YFP) expression in CHO•CD4-YFP cells; conditions: read-out: IC50 (CD4 down-modulation); cited from earlier work
[3] = CD4-YFP transfected CHO cells, n ≥ 3, benzyl-tailed compounds
[4] = stably CD4-YFP transfected CHO cells, n = 3, cyclohexylmethyl-tailed compounds

DC50 [1, 3]	SMILES	also measured
3.78 ± 2.38 µM	C=C1CN(C(=O)c2ccc(C)cc2)CCCN(Cc2ccccc2)CCCN(S(=O)(=O)c2ccc(C)cc2)C1 [Compound 59]	
0.92 ± 0.11 µM	C=C1CN(S(=O)(=O)c2ccc(C)cc2)CCCN(Cc2ccccc2)CCCN(S(=O)(=O)c2ccc(F)cc2)C1 [Compound 37]	
2.42 ± 0.42 µM	C=C1CN(S(=O)(=O)c2ccc(C)cc2)CCCN(Cc2ccccc2)CCCN(S(=O)(=O)c2ccc(N)cc2)C1 [Compound 45]	
> 50 µM	C=C1CN(C(=O)c2ccc([N+](=O)[O-])cc2)CCCN(Cc2ccccc2)CCCN(S(=O)(=O)c2ccc(C)cc2)C1 [Compound 60]	
4.22 ± 0.84 µM	C=C1CN(C(=O)c2ccc(OC)cc2)CCCN(Cc2ccccc2)CCCN(S(=O)(=O)c2ccc(C)cc2)C1 [Compound 58, 9-benzyl-3-methylene-5-(p-methoxybenzoyl)-1-(p-toluenesulfonyl)-1,5,9-triazacyclododecane]	
5.25 ± 1.1 µM	C=C1CN(S(=O)(=O)c2ccc(C)cc2)CCCN(Cc2ccccc2)CCCN(S(=O)(=O)c2ccc([N+](=O)[O-])cc2)C1 [Compound 27]	
> 50 µM	C=C1CN(C(=O)c2ccc(N)cc2)CCCN(Cc2ccccc2)CCCN(S(=O)(=O)c2ccc(C)cc2)C1.Cl [Compound 62]	percentage CD4 down-modulation measured at highest (50 μM) compound concentration ([1]; 50 μM compound, CD4-YFP transfected CHO cells, 24 h): 15%
2.12 ± 0.39 µM	C=C1CN(S(=O)(=O)c2ccc(C)cc2)CCCN(Cc2ccccc2)CCCN(S(=O)(=O)c2ccccc2N)C1 [Compound 43]	
1.02 ± 0.09 µM	C=C1CN(S(=O)(=O)c2ccc(C)cc2)CCCN(Cc2ccccc2)CCCN(S(=O)(=O)c2cccc(N)c2)C1 [Compound 44]	
0.17 ± 0.08 µM	C=C1CN(S(=O)(=O)c2ccc(C)cc2)CCCN(Cc2ccccc2)CCCN(S(=O)(=O)c2ccc(N(C)C)cc2)C1 [Compound 32]	
7.32 ± 1.7 µM	C=C1CN(C(=O)c2ccccc2)CCCN(Cc2ccccc2)CCCN(S(=O)(=O)c2ccc(C)cc2)C1 [Compound 61]	
3.58 ± 0.54 µM	C=C1CN(S(=O)(=O)c2ccc(C)cc2)CCCN(Cc2ccccc2)CCCN(S(=O)(=O)c2ccc(O)cc2)C1 [Compound 55]	
0.29 ± 0.09 µM	C=C1CN(S(=O)(=O)c2ccc(C)cc2)CCCN(Cc2ccccc2)CCCN(S(=O)(=O)c2ccc(OC)cc2)C1 [Compound 50, reference compound]	
0.23 ± 0.05 µM	C=C1CN(S(=O)(=O)c2ccc(C)cc2)CCCN(Cc2ccccc2)CCCN(S(=O)(=O)c2ccc(SC)cc2)C1 [Compound 41, 9-Benzyl-3-methylene-1-(p-thiomethoxybenzenesulfonyl)-5-(p-toluenesulfonyl)-1,5,9-triazacyclododecane]	

Further lines, the compound ahead of its results:

SMILES	DC50 [1, 3]	also measured
C=C1CN(S(=O)(=O)c2ccc(C)cc2)CCCN(Cc2ccccc2)CCCN(S(=O)(=O)c2cccc([N+](=O)[O-])c2)C1 [Compound 34]	2.02 ± 0.29 µM	
C=C1CN(S(=O)(=O)c2ccc(C)cc2)CCCN(CC2CCCCC2)CCCN(S(=O)(=O)c2ccc(N(C)C)cc2)C1 [Compound 40, 9-Cyclohexylmethyl-1-(p-(dimethylamino)benzenesulfonyl)-3-methylene-5-(p-toluenesulfonyl)-1,5,9-triazacyclododecane]		DC50 [1, 4]: 0.063 ± 0.005 µM
C=C1CN(S(=O)(=O)c2ccc(C)cc2)CCCN(CC2CCCCC2)CCCN(S(=O)(=O)c2ccc(OCC)cc2)C1 [Compound 52]		DC50 [1, 4]: 0.19 ± 0.01 µM
C=C1CN(S(=O)(=O)c2ccc(C)cc2)CCCN(Cc2ccccc2)CCCN(S(=O)(=O)c2ccc(OC(=S)N(C)C)cc2)C1 [Compound 57]	6.28 ± 2.04 µM	
C=C1CN(S(=O)(=O)c2ccc(C)cc2)CCCN(Cc2ccccc2)CCCN(S(=O)(=O)c2ccc(OC)cc2OC)C1 [Compound 30]	1.35 ± 0.3 µM	
C=C1CN(S(=O)(=O)c2ccc(C)cc2)CCCN(Cc2ccccc2)CCCN(S(=O)(=O)N2CCOCC2)C1 [Compound 63]	1.08 ± 0.1 µM	
C=C1CN(S(=O)(=O)c2ccc(C)cc2)CCCN(Cc2ccccc2)CCCN(S(=O)(=O)c2ccccc2[N+](=O)[O-])C1 [Compound 28]	0.7 ± 0.09 µM	
C=C1CNCCCN(Cc2ccccc2)CCCN(S(=O)(=O)c2ccc(C)cc2)C1 [Compound 49, 9-Benzyl-3-methylene-1-(p-toluenesulfonyl)-1,5,9-triazacyclododecane]	> 50 µM	
C=C1CN(S(=O)(=O)c2ccc(C)cc2)CCCN(Cc2ccccc2)CCCN(S(=O)(=O)c2ccc(C)cc2)C1 [CADA, Cyclotriazadisulfonamide]		IC50 [2]: 400 nM
C=C1CN(S(=O)(=O)c2ccc(C)cc2)CCCN(Cc2ccccc2)CCCN(S(=O)(=O)N(C)C)C1 [Compound 35]	1.58 ± 0.2 µM	
C=C1CN(S(=O)(=O)c2ccc(C)cc2)CCCN(Cc2ccccc2)CCCN(S(=O)(=O)c2ccc3c(c2)OCO3)C1 [Compound 33]	1.06 ± 0.12 µM	
C=C1CN(S(=O)(=O)c2ccc(C)cc2)CCCN(CC2CCCCC2)CCCN(S(=O)(=O)c2ccc(OCCCN)cc2)C1 [Compound 54]		DC50 [1, 4]: > 50 µM
C=C1CN(S(=O)(=O)c2ccc(C)cc2)CCCN(CC2CCCCC2)CCCN(S(=O)(=O)c2ccc(-n3cccc3)cc2)C1 [Compound 47]		DC50 [1, 4]: 0.18 ± 0.01 µM
C=C1CN(S(=O)(=O)c2ccc(C)cc2)CCCN(Cc2ccccc2)CCCN(S(=O)(=O)c2ccn(C)c2)C1 [Compound 36]	3.17 ± 0.64 µM	
C=C1CN(S(=O)(=O)c2ccc(C)cc2)CCCN(CC2CCCCC2)CCCN(S(=O)(=O)c2ccc(OCCCC)cc2)C1 [Compound 39, 1-(p-Butoxybenzenesulfonyl)-9-cyclohexylmethyl-3-methylene-5-(p-toluenesulfonyl)-1,5,9-triazacyclododecane]		DC50 [1, 4]: 1.1 ± 0.13 µM
C=C1CN(S(=O)(=O)c2ccc(C)cc2)CCCN(CC2CCCCC2)CCCN(S(=O)(=O)c2ccc(OC)cc2)C1 [Compound 1, reference compound]		DC50 [1, 4]: 0.15 ± 0.01 µM
C=C1CN(S(=O)(=O)c2ccc(C)cc2)CCCN(CC2CCCCC2)CCCN(S(=O)(=O)c2ccc(N)cc2)C1 [Compound 46]		DC50 [1, 4]: 1 ± 0.15 µM
C=C1CN(S(=O)(=O)c2ccc(C)cc2)CCCN(CC2CCCCC2)CCCN(S(=O)(=O)c2ccc(N3CCOCC3)cc2)C1 [Compound 48]		DC50 [1, 4]: 0.13 ± 0.01 µM
C=C1CN(S(=O)(=O)c2ccc(C)cc2)CCCN(Cc2ccccc2)CCCN(S(=O)(=O)c2ccc3ccccc3c2)C1 [Compound 26]	0.55 ± 0.17 µM	
C=C1CN(S(=O)(=O)c2ccc(C)cc2)CCCN(Cc2ccccc2)CCCN(S(=O)(=O)c2ccc(OC(F)(F)F)cc2)C1 [Compound 29]	1.2 ± 0.01 µM	
C#CCOc1ccc(S(=O)(=O)N2CCCN(Cc3ccccc3)CCCN(S(=O)(=O)c3ccc(C)cc3)CC(=C)C2)cc1 [Compound 56]	0.46 ± 0.07 µM	
C=C1CN(S(=O)(=O)c2ccc(C)cc2)CCCN(CC2CCCCC2)CCCN(S(=O)(=O)c2ccc(O)cc2)C1 [Compound 51, 9-Cyclohexylmethyl-1-(p-hydroxybenzenesulfonyl)-3-methylene-5-(p-toluenesulfonyl)-1,5,9-triazacyclododecane]		DC50 [1, 4]: 1.14 ± 0.02 µM
C=C1CN(S(=O)(=O)c2ccc(C)cc2)CCCN(Cc2ccccc2)CCCN(S(=O)(=O)c2ccc(OC)c(OC)c2)C1 [Compound 31]	0.31 ± 0.06 µM	
C=C1CN(S(=O)(=O)c2ccc(C)cc2)CCCN(CC2CCCCC2)CCCN(S(=O)(=O)c2ccc(OCCCN3C(=O)c4ccccc4C3=O)cc2)C1 [Compound 53]		DC50 [1, 4]: 0.75 ± 0.06 µM
C=C1CN(S(=O)(=O)c2ccccc2)CCCN(Cc2ccccc2)CCCN(S(=O)(=O)c2ccc(C)cc2)C1 [Compound 25, 1-(benzenesulfonyl)-9-benzyl-3-methylene-5-(p-toluenesulfonyl)-1,5,9-triazacyclododecane]	1.46 ± 0.05 µM	
C=C1CN(S(=O)(=O)c2ccc(C)cc2)CCCN(Cc2ccccc2)CCCN(S(=O)(=O)c2cccc(N(C)C)c2)C1 [Compound 38]	0.79 ± 0.1 µM	

From paper PMC7006954 (Journal of medicinal chemistry, 2016)
